Source: patent publication US11098010B2 (priority 2017, dated 2021)
pEC50: −log10 of the molar value.

Test system: HBV rcDNA in HepDE19 cells
Assay: HepDE19 assay with bDNA quantitation of HBV rcDNA
Assay type: cell-based, hepatitis B virus (HBV)
Settings: HepDE19 cells, inhibition of rcDNA formation, 7 day incubation, top concentration 25 μM; read-out: DE-19 bDNA EC50
Protocol: HepDE19 Assay with bDNA Quantitation of HBV rcDNA:
HepDE19 cell culture system is a HepG2 (human hepatocarcinoma) derived cell line that supports HBV DNA replication and cccDNA formation in a tetracycline (Tet)-regulated manner and produces HBV rcDNA and a detectable reporter molecule dependent on the production and maintenance of cccDNA (Guo, et al., 2007, J. Virol. 81:12472-12484).
HepDE19 (50,000 cells/well) were plated in 96-well collagen-coated tissue-culture treated microtiter plates in DMEM/F12 medium supplemented with 10% fetal bovine serum, 1% penicillin-streptomycin and 1 μg/mL tetracycline and incubated in a humidified incubator at 37° C. and 5% CO2 overnight. Next day, the cells were switched to fresh medium without tetracycline and incubated for 4 hours at 37° C. and 5% CO2. The cells were treated with fresh Tet-free medium with compounds at concentrations starting at 25 μM and a serial, ½ log, 8-point, titration series in duplicate. The final DMSO concentration in the assay was 0.5%. The plates were incubated for 7 days in a humidified incubator at 37° C. and 5% CO2. Following a 7 day-incubation, the level of rcDNA present in the inhibitor-treated wells was measured using a Quantigene 2.0 bDNA assay kit (Affymetrix, Santa Clara, Calif.) with HBV specific custom probe set and manufacturers instructions. Concurrently, the effect of compounds on cell viability was assessed using replicate plates, plated at a density of 5,000 cells/well and incubated for 4 days, to determine the ATP content as a measure of cell viability using the cell-titer glo reagent (CTG; Promega Corporation, Madison, Wis.) as per manufacturer's instructions. The plates were read using a Victor luminescence plate reader (PerkinElmer Model 1420 Multilabel counter) and the relative luminescence units (RLU) data generated from each well was calculated as % inhibition of the untreated control wells and analyzed using XL-Fit module in Microsoft Excel to determine EC50 and EC90 (bDNA) and CC50 (CTG) values using a 4-parameter curve fitting algorithm.
Representative compounds of the invention were tested for their abilities to inhibit formation of relaxed circular DNA (rcDNA) in a HepDE19 assay, as described elsewhere herein.

In order of falling pEC50:
1. O=C(Nc1ccc(F)c(Cl)c1)c1ccc(F)c2c1OCC2NS(=O)(=O)C1CC1 (single isomer, unassigned) [Compound 208, N-(3-chloro-4-fluorophenyl)-3-(cyclopropanesulfonamido)-4-fluoro-2,3-dihydrobenzofuran-7-carboxamide]  6.96
2. O=C(NC1CSc2c(C(=O)Nc3ccc(F)c(Cl)c3)cccc21)OCc1ccccn1 (stereo not drawn) [Compound 35, O-Pyridin-2-ylmethyl, N-(7-((3-chloro-4-fluorophenyl)carbamoyl)-2,3-dihydrobenzo[b]thiophen-3-yl) carbamate]  6.11
3. O=C(NC1CSc2c(C(=O)Nc3ccc(F)c(F)c3)cccc21)OCc1ccccn1 (stereo not drawn) [Compound 27, O-pyridin-2-ylmethyl, N-(7-((3,4-difluorophenyl)carbamoyl)-2,3-dihydrobenzo[b]thiophen-3-yl) carbamate]  5.85
4. CC1(NC(=O)OCc2ccccn2)CCc2c(C(=O)Nc3ccc(F)c(Cl)c3)ccc(F)c21 (stereo not drawn) [Compound 224, O-Pyridin-2-ylmethyl, N-(4-((3-chloro-4-fluorophenyl)carbamoyl)-7-fluoro-1-methyl-2,3-dihydro-1H-inden-1-yl) carbamate]  4.96

Same assay, conditions: Hepatitis B virus, HepDE19, 168 h, HepDE19 cells, inhibition of rcDNA formation, 7 day incubation, top concentration 25 μM; read-out: DE-19 bDNA EC50

In order of falling pEC50:
1. Cn1nccc1COC(=O)N[C@H]1CCc2c(C(=O)Nc3ccc(F)c(Cl)c3)ccc(F)c21 [Compound 103, O-(1-Methyl-1H-pyrazol-5-yl)methyl, N—(S)-(4-((3-chloro-4-fluorophenyl)carbamoyl)-7-fluoro-2,3-dihydro-1H-inden-1-yl) carbamate]  7.00
2. [2H]C([2H])(OC(=O)N[C@H]1CCc2c(C(=O)Nc3ccc(F)c(Cl)c3)ccc(F)c21)c1ncn(C([2H])([2H])[2H])n1 [Compound 252, O-((1-(Methyl-d3)-1H-1,2,4-triazol-3-yl)methyl-d2, N—(S)-(4-((3-chloro-4-fluorophenyl)carbamoyl)-7-fluoro-2,3-dihydro-1H-inden-1-yl) carbamate]  6.89
3. O=C(N[C@H]1CCc2c(C(=O)Nc3ccc(F)c(Cl)c3)ccc(F)c21)O[C@H]1CCOC1 [Compound 181, O—(S)-Tetrahydrofuran-3-yl, N—((S)-4-((3-chloro-4-fluorophenyl)carbamoyl)-7-fluoro-2,3-dihydro-1H-inden-1-yl) carbamate]  6.82
4. N#Cc1cccc(COC(=O)N[C@H]2CCc3c(C(=O)Nc4ccc(F)c(Cl)c4)ccc(F)c32)n1 [Compound 150, O-(6-Cyanopyridin-2-yl)methyl, N—(S)-(4-((3-chloro-4-fluorophenyl)carbamoyl)-7-fluoro-2,3-dihydro-1H-inden-1-yl)carbamate]  6.82
5. CC(=O)N[C@H]1CCc2c(C(=O)Nc3ccc(F)c(Cl)c3)ccc(F)c21 [Compound 77, (S)-1-Acetamido-N-(3-chloro-4-fluorophenyl)-7-fluoro-2,3-dihydro-1H-indene-4-carboxamide]  6.70
6. O=C(Nc1ccc(F)c(Cl)c1)c1ccc(F)c2c1CCS2(=O)=O [Compound 272, N-(3-Chloro-4-fluorophenyl)-7-fluoro-2,3-dihydrobenzo[b]thiophene-4-carboxamide 1,1-dioxide]  6.66
7. O=C(N[C@H]1CCc2c(C(=O)Nc3ccc(F)c(Cl)c3)ccc(F)c21)OC1CC1 [Compound 226, O-cyclopropyl, N—(S)-(4-((3-chloro-4-fluorophenyl)carbamoyl)-7-fluoro-2,3-dihydro-1H-inden-1-yl)carbamate]  6.62
8. O=C(N[C@H]1CCc2c(C(=O)Nc3ccc(F)c(Cl)c3)ccc(F)c21)OC1CCC(O)CC1 (stereo partly drawn) [Compound 154, O-cis-4-Hydroxycyclohexyl, N—((S)-4-((3-chloro-4-fluorophenyl)carbamoyl)-7-fluoro-2,3-dihydro-1H-inden-1-yl) carbamate]  6.46
9. O=C1CC[C@H](OC(=O)N[C@H]2CCc3c(C(=O)Nc4ccc(F)c(Cl)c4)ccc(F)c32)CN1 [Compound 200, O—(S)-6-Oxopiperidin-3-yl, N—((S)-4-((3-chloro-4-fluorophenyl)carbamoyl)-7-fluoro-2,3-dihydro-1H-inden-1-yl) carbamate]  6.37
10. O=C(N[C@H]1CCc2c(C(=O)Nc3ccc(F)c(Cl)c3)ccc(F)c21)OC1CCCC1 [Compound 131, O-Cyclopentyl, N—(S)-(4-((3-chloro-4-fluorophenyl)carbamoyl)-7-fluoro-2,3-dihydro-1H-inden-1-yl)carbamate]  6.23
11. O=C(Nc1ccc(F)c(Cl)c1)c1ccc(F)c2c1CC[C@@H]2O [Compound 81, (S)—N-(3-Chloro-4-fluorophenyl)-7-fluoro-1-hydroxy-2,3-dihydro-1H-indene-4-carboxamide]  6.17

Same assay, conditions: Hepatitis B virus, HepDE19, 168 h, read-out: DE-19 bDNA EC50 (μM), HepDE19 cells, inhibition of rcDNA formation, 7 day incubation, top concentration 25 μM

In order of falling EC50:
1. O=C(N[C@H]1CCc2c(C(=O)Nc3ccc(F)c(Cl)c3)ccc(F)c21)OCc1ccc(C(F)(F)F)cn1 [Compound 169, O-(5-(Trifluoromethyl)pyridin-2-yl)methyl, N—(S)-(4-((3-chloro-4-fluorophenyl)carbamoyl)-7-fluoro-2,3-dihydro-1H-inden-1-yl) carbamate]  2.2 µM
2. COc1ccnc(N[C@H]2CCc3c(C(=O)Nc4ccc(F)c(Cl)c4)ccc(F)c32)n1 [Compound 159, (S)—N-(3-Chloro-4-fluorophenyl)-7-fluoro-1-((4-methoxypyrimidin-2-yl)amino)-2,3-dihydro-1H-indene-4-carboxamide]  0.69 µM
3. CN1C(=O)CC[C@@H]1COC(=O)N[C@H]1CCc2c(C(=O)Nc3ccc(F)c(Cl)c3)ccc(F)c21 [Compound 43]  0.54 µM
4. O=C(N[C@H]1CCc2c(C(=O)Nc3ccc(F)c(Cl)c3)ccc(F)c21)OCCN1CCOCC1 [Compound 153, O-2-Morpholinoethyl, N—(S)-(4-((3-chloro-4-fluorophenyl)carbamoyl)-7-fluoro-2,3-dihydro-1H-inden-1-yl) carbamate]  0.47 µM
5. COCC(=O)N1CCC(COC(=O)N[C@H]2CCc3c(C(=O)Nc4ccc(F)c(Cl)c4)ccc(F)c32)CC1 [Compound 185, O-(1-(2-Methoxyacetyl)piperidin-4-yl)methyl, N—(S)-(4-((3-chloro-4-fluorophenyl)carbamoyl)-7-fluoro-2,3-dihydro-1H-inden-1-yl) carbamate]  0.37 µM
6. O=C(N[C@H]1CCc2c(C(=O)Nc3ccc(F)c(Cl)c3)ccc(F)c21)OC[C@@H]1CCCO1 [Compound 142, O—((S)-Tetrahydrofuran-2-yl)methyl, N—((S)-4-((3-chloro-4-fluorophenyl)carbamoyl)-7-fluoro-2,3-dihydro-1H-inden-1-yl) carbamate]  0.27 µM
7. COc1cc(N[C@H]2CCc3c(C(=O)Nc4ccc(F)c(Cl)c4)ccc(F)c32)ncn1 [Compound 163, (S)—N-(3-Chloro-4-fluorophenyl)-7-fluoro-1-((6-methoxypyrimidin-4-yl)amino)-2,3-dihydro-1H-indene-4-carboxamide]  0.07 µM

Same assay, conditions: read-out: DE-19 bDNA EC50; HepDE19 cells, inhibition of rcDNA formation, 7 day incubation, top concentration 25 μM

First: COC(=O)NC1CSc2c(C(=O)Nc3ccc(F)c(F)c3)cccc21 (single isomer, unassigned) [Compound 31, O-Methyl, N-(7-((3,4-difluorophenyl)carbamoyl)-2,3-dihydrobenzo[b]thiophen-3-yl)carbamate]
Second: COC(=O)NC1COc2c(C(=O)Nc3ccc(F)c(Cl)c3)ccc(F)c21 (stereo not drawn) [Compound 188, O-Methyl, N-(7-((3-chloro-4-fluorophenyl)carbamoyl)-4-fluoro-2,3-dihydrobenzofuran-3-yl) carbamate]
The pEC50 of the first is lower: < 4.60 for the first, 5.28 for the second.
